From paper PMC8158265, “Inhibition of catechol-O-methyltransferase by natural pentacyclic triterpenes: structure–activity relationships and kinetic mechanism” (Journal of Enzyme Inhibition and Medicinal Chemistry, 2021)
Read-outs that look alike come from different tables or passages of the source.

Assays:
[1] = biological target: T1, recombinant human S-COMT (Homo sapiens, UniProt P21964); experiment: COMT activity inhibition assay (enzymatic activity based fluorescence assay, 3-BTD substrate); format: biochemical
T1 construct: made in house
T1 sequence (P21964 1-221 isoform P21964-2): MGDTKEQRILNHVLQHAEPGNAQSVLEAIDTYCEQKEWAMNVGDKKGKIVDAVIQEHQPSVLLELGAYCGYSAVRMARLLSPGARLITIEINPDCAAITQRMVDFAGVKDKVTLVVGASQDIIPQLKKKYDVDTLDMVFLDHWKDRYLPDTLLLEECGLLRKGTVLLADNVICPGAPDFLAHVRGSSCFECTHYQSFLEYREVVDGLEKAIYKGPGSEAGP

[2] = biological target: T1, recombinant human S-COMT; experiment: Inhibition kinetics of human S-COMT catalysed O-methylation of 3-BTD; format: biochemical; settings: for Vmax: 200 μM SAM; for α: global fit of mixed inhibition model; for Inhibition type: with respect to 3-BTD (catechol site)
[3] = system: LO-2 cells; experiment: Cytotoxicity assay (CCK8); format: cell-based, human; settings: for IC50: Homo sapiens; for cell survival: up to 100 μM
Method: The normal human liver-derived cell line LO-2 were grown in DMEM culture medium supplemented with 10% FBS, penicillin (100 U/mL) and streptomycin ([…]). After culturing to 80% confluence, cells were digested and exactly 100 µL of cell suspension with a cell concentration of 10^4 cells/well was seeded in 96-well plates and incubated in a 5% CO2 humidified atmosphere at 37 °C for 12 h. Then the cells were incubated with 100 μL tested compounds of varying concentrations from 0.25 to 100 μM prepared in FBS-free culture medium for 24 h. Subsequently, CCK-8 was diluted 1:10 with DMEM culture and them was added into the adherent cells and incubated in 37 °C for 2 h. The absorbance at 450 nm was measured by using the multi-mode microplate reader. Cell viability can be calculated by A/A0 × 100% (A and A0 are the absorbance of experimental group and control group, respectively).

[4] = system: mitochondrial membrane potential of LO-2 cells; experiment: Mitochondrial membrane potential assay (JC-10, high-content imaging); format: cell-based, human; settings: 24 h
Method: The cells were cultured as described in the Section 2.3. […] To assess the mitochondria membrane potential, JC-10 (5 μg/mL) was incubated with the cells for 30 min, and Hochest (10 μg/mL) was used to stain nuclei. After removal of culture medium and rinsing three times with PBS, cell imaging and quantitative analysis were performed by high-content imaging analysis (Molecular Devices® ImageXpress Micro 4, the USA).

[5] = 2.0 μg/mL human S-COMT, 2.0 μM 3-BTD as substrate, 200 μM SAM, mean ± SE
[6] = 2.0 μg/mL human S-COMT, 2.0 μM 3-BTD as substrate, 200 μM SAM, mean ± SE, read-out: IC50
[7] = apparent Vmax for 3-BTD with 2.5 μM inhibitor
[8] = apparent Vmax for 3-BTD with 5.0 μM inhibitor
[9] = apparent Vmax for 3-BTD with 7.5 μM inhibitor
[10] = L02, LO-2 cells, 24 h, CCK8, read-out: concentration that led to a 50% decrease of cell viability

SMILES: C[C@H]1C(=O)CC[C@@H]2[C@]1(C)CC[C@H]1[C@@]2(C)CC[C@@]2(C)[C@@H]3CC(C)(C)CC[C@]3(C)CC[C@]12C [Compound 20, Friedelin]
- IC50 [1, 5]: N.E.

SMILES: C[C@H]1[C@H](C)CC[C@]2(C(=O)O)CC[C@]3(C)C(=CC[C@@H]4[C@@]5(C)C[C@@H](O)[C@H](O)[C@@](C)(CO)[C@@H]5CC[C@]43C)[C@H]12 [Compound 8, Asiatic acid]
- IC50 [1]: 43.1 ± 5.92 µM

SMILES: C[C@H]1[C@H](C)CC[C@]2(C)CC[C@]3(C)C(=CC(=O)[C@@H]4[C@@]5(C)CC[C@@H](O)[C@](C)(C(=O)O)[C@@H]5CC[C@]43C)[C@H]12 [Compound 10, 11-Keto-β-Boswellic acid]
- IC50 [1, 5]: N.E.

SMILES: CC1(C)CC[C@]2(C)CC[C@]3(C)C(=CC[C@@H]4[C@@]5(C)CC[C@@H](O)[C@](C)(C(=O)O)[C@@H]5CC[C@]43C)[C@@H]2C1 [Compound 5, α-Boswellic acid]
- IC50 [1, 6]: 29.2 ± 1.65 µM

SMILES: CC1=C(O)C(=O)C=C2C1=CC=C1[C@@]2(C)CC[C@@]2(C)[C@@H]3C[C@](C)(C(=O)O)CC[C@]3(C)CC[C@]12C [Compound 18, Celastrol]
- IC50 [1]: 3.89 ± 0.15 µM
- Ki [2]: 3.5 ± 0.51 µM
- Vmax [2, 7]: 7.91 ± 0.16 nmol/min/mg
- Vmax [2, 8]: 4.39 ± 0.10 nmol/min/mg
- Vmax [2, 9]: 2.54 ± 0.047 nmol/min/mg
- α ([2]; with respect to 3-BTD): 0.20
- Inhibition type [2]: Mixed
- IC50 ([3]; L02, 24 h, read-out: concentration that led to a 50% decrease of cell viability, LO-2 cells, 24 h, CCK8): 2.4 µM
- fold more potent cytotoxicity than tolcapone ([3]; LO-2 cells, CCK8): 12 fold

SMILES: CC1(C)CC[C@]2(C(=O)O)CC[C@]3(C)C(=CC[C@@H]4[C@@]5(C)CC[C@H](O)C(C)(C)[C@@H]5CC[C@]43C)[C@@H]2C1 [Compound 1, Oleanic acid]
- Vmax [2, 7]: 8.45 ± 0.29 nmol/min/mg
- Vmax [2, 8]: 4.56 ± 0.084 nmol/min/mg
- Vmax [2, 9]: 2.20 ± 0.030 nmol/min/mg
- Inhibition type [2]: Mixed
- effect on MMP ([4]; at 50 μM): did not display a decrease of MMP
- IC50 [3, 10]: > 100 µM
- cell survival ([3]; LO-2 cells, CCK8): 95%

SMILES: CCN(CC)C(=O)/C(C#N)=C/c1cc(O)c(O)c([N+](=O)[O-])c1 [Entacapone, entacapone, reference compound]
- IC50 [3, 10]: > 100 µM

SMILES: C=C(C)[C@@H]1CC[C@]2(C(=O)O)CC[C@]3(C)[C@H](CC[C@@H]4[C@@]5(C)CC[C@H](O)[C@@](C)(CO)[C@@H]5CC[C@]43C)[C@@H]12 [Compound 16, 23-Hydroxybetulinic acid]
- IC50 [1, 6]: 31.4 ± 2.42 µM

SMILES: Oc1cc(O)c2c(c1)O[C@H](c1ccc(O)c(O)c1)[C@H](O)C2 [Epicatechin, reference compound]
- IC50 [1, 6]: 9.57 ± 0.55 µM

SMILES: CC1(C)CC[C@]2(C(=O)O)CC[C@]3(C)C(=CC[C@@H]4[C@@]5(C)C[C@@H](O)[C@H](O)C(C)(C)[C@@H]5CC[C@]43C)[C@@H]2C1 [Compound 3, Masline acid]
- IC50 [1]: 10.6 ± 0.96 µM

SMILES: Cc1ccc(C(=O)c2cc(O)c(O)c([N+](=O)[O-])c2)cc1 [Tolcapone, tolcapone, reference compound]
- reduction in membrane potential ([4]; 10 μM): 50%
- IC50 [3, 10]: 28 to 38 µM

SMILES: CC1(C)CC[C@]2(C(=O)O)CC[C@]3(C)C(=CC[C@@H]4[C@@]5(C)CC[C@H](O)[C@@](C)(CO)[C@@H]5CC[C@]43C)[C@@H]2C1 [Compound 2, Hederagenin]
- IC50 [1, 6]: 8.37 ± 0.46 µM

SMILES: C=C(C)[C@@H]1CC[C@]2(C(=O)O)CC[C@]3(C)[C@H](CC[C@@H]4[C@@]5(C)CC[C@@H](O)C(C)(C)[C@@H]5CC[C@]43C)[C@@H]12 [Compound 15, Epibetulinic acid]
- reduction in COMT-inhibitory potential compared to betulinic acid (11) [1]: 50%
- IC50 [1, 6]: 9.38 ± 0.37 µM

SMILES: C[C@H]1[C@H](C)CC[C@]2(C(=O)O)CC[C@]3(C)C(=CC[C@@H]4[C@@]5(C)CC[C@H](O)C(C)(C)[C@@H]5CC[C@]43C)[C@H]12 [Compound 7, Ursolic acid]
- IC50 [1, 6]: 15.1 ± 1.35 µM
- fold lower inhibitory potency than oleanolic acid (1) ([1]; ratio of IC50 values): ~3 fold

SMILES: CC1(C)[C@@H](O)CC[C@]2(C)[C@H]3C(=O)C=C4[C@@H]5C[C@@](C)(C(=O)O)CC[C@]5(C)CC[C@@]4(C)[C@]3(C)CC[C@@H]12 [Compound 6, Glycyrrhetinic acid]
- IC50 [1, 6]: 115 ± 11.6 µM

SMILES: C=C(C)[C@@H]1CC[C@]2(C)CC[C@]3(C)[C@H](CC[C@@H]4[C@@]5(C)CC[C@H](O)C(C)(C)[C@@H]5CC[C@]43C)[C@@H]12 [Compound 12, Lupeol]
- IC50 [1, 6]: 7.93 ± 0.47 µM

SMILES: O=c1c(O)c(-c2ccc(O)c(O)c2)oc2cc(O)cc(O)c12 [Quercetin, reference compound]
- IC50 [1]: 3.23 ± 0.11 µM

SMILES: CC1(C)CCC2(C(=O)O)C(O)CC3(C)C(=CCC4C5(C)CC(O)C(O)C(C)(CO)C5CCC43C)C2C1 (stereo not shown) [Compound 4, Polygalacic acid]
- IC50 [1, 5]: N.E.

SMILES: C=C(C)[C@@H]1CC[C@]2(C(=O)O)CC[C@]3(C)[C@H](CC[C@@H]4[C@@]5(C)CCC(=O)C(C)(C)[C@@H]5CC[C@]43C)[C@@H]12 [Compound 17, Betulonic acid]
- IC50 [1, 6]: 11.1 ± 0.51 µM

SMILES: Cc1c(O)c(O)cc2c1CC=C1C2(C)CCC2(C)C3CC(C)(C(=O)O)CCC3(C)CCC12C (stereo not shown) [Compound 19, Hydrocelastrol]
- IC50 [1]: 12.6 ± 0.73 µM

SMILES: C=C(C)[C@@H]1CC[C@]2(CO)CC[C@]3(C)[C@H](CC[C@@H]4[C@@]5(C)CC[C@H](O)C(C)(C)[C@@H]5CC[C@]43C)[C@@H]12 [Compound 13, Betulin]
- IC50 [1]: 8.86 ± 0.46 µM

SMILES: C=C(C)[C@@H]1CC[C@]2(C=O)CC[C@]3(C)[C@H](CC[C@@H]4[C@@]5(C)CC[C@H](O)C(C)(C)[C@@H]5CC[C@]43C)[C@@H]12 [Compound 14, Betulinic aldehyde]
- IC50 [1, 6]: 10 ± 0.63 µM

SMILES: C[C@H]1[C@H](C)CC[C@]2(C)CC[C@]3(C)C(=CC[C@@H]4[C@@]5(C)CC[C@@H](O)[C@](C)(C(=O)O)[C@@H]5CC[C@]43C)[C@H]12 [Compound 9, β-Boswellic acid]
- IC50 [1, 6]: 14.2 ± 0.87 µM

SMILES: C=C(C)[C@@H]1CC[C@]2(C(=O)O)CC[C@]3(C)[C@H](CC[C@@H]4[C@@]5(C)CC[C@H](O)C(C)(C)[C@@H]5CC[C@]43C)[C@@H]12 [Compound 11, Betulinic acid]
- IC50 [1, 6]: 5.07 ± 0.087 µM
- Vmax [2, 7]: 9.97 ± 0.20 nmol/min/mg
- Vmax [2, 8]: 8.95 ± 0.22 nmol/min/mg
- Vmax [2, 9]: 6.06 ± 0.24 nmol/min/mg
- α ([2]; with respect to 3-BTD): 0.39
- Ki ([2]; global fit, with respect to 3-BTD, saturated SAM, read-out: Ki): 5.6 ± 0.33 µM
- Inhibition type [2]: Mixed
- IC50 [3, 10]: > 100 µM
- cell survival ([3]; LO-2 cells, CCK8): 95%
